Experimental data reported in PubChem BioAssay AID330 (DTP/NCI, 2004).
Where “and” joins values, the source holds several entries; their conditions need not be identical. Equal values may be shown once. Toxic doses and inconclusive results are not listed. Square brackets hold non-standard residues; d marks the D form. Peptide text beside a SMILES is read from it. ξ: configuration not given here. ξPhe(4-N(CH2CH2Cl)2) = NC(Cc1ccc(N(CCCl)CCCl)cc1)C(=O)O; Aad = N[CH](CCCC(=O)O)C(=O)O

System: P388 leukemia ip, CD2F1 mice, survival T/C
Assay: NCI In Vivo Anticancer Drug Screen. Data for tumor model P388 Leukemia (intraperitoneal) in CD2F1 (CDF1) mice
Settings: endpoint: median survival time, higher = longer survival
Summary of the method: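 Mice carrying the transplanted tumor received test compound or vehicle. Survival was recorded in each group, and the value is the treated-group measurement divided by that of the vehicle-treated control group.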

[1] = dose: 50.0 mg/kg/injection, schedule: Q01DX005 (ip), vehicle: saline with Tween-80

CCOC(=O)C(Cc1ccc(N(CCCl)CCCl)cc1)NC(=O)C(CCC(=O)O)NC(=O)C(Cc1ccc(O)cc1)NC(=O)C(CCCC(=O)O)NC(=O)C(N)Cc1ccc(O)cc1 (stereo not drawn) (H-Y[Aad]YE[ξPhe(4-N(CH2CH2Cl)2)]-OEt; configuration not given here)
T/C (dose: 25.0 mg/kg/injection, schedule: Q01DX009 (ip), vehicle: Klucel (hydroxypropylcellulose) (HPC)): 162 % of control | T/C (dose: 50.0 mg/kg/injection, schedule: Q01DX009 (ip), vehicle: Klucel (hydroxypropylcellulose) (HPC)): 173 % of control and 186 % of control | T/C (dose: 100.0 mg/kg/injection, schedule: Q01DX009 (ip), vehicle: Klucel (hydroxypropylcellulose) (HPC)): 189 % of control and 230 % of control | T/C (dose: 200.0 mg/kg/injection, schedule: Q01DX009 (ip), vehicle: Klucel (hydroxypropylcellulose) (HPC)): 218 % of control and 220 % of control

CC1NS(=O)(=O)c2ccccc2C1=O (stereo not drawn)
T/C (dose: 100.0 mg/kg/injection, schedule: Q04DX003 (ip), vehicle: saline): 100 % of control | T/C (dose: 200.0 mg/kg/injection, schedule: Q04DX003 (ip), vehicle: saline): 101 % of control | T/C (dose: 400.0 mg/kg/injection, schedule: Q04DX003 (ip), vehicle: saline): 108 % of control

Cc1c(N=Nc2ccccc2C(F)(F)F)c(-c2ccccc2)nn1C(=S)S
T/C (dose: 100.0 mg/kg/injection, schedule: Q01DX001 (ip), vehicle: saline with Tween-80): 89 % of control | T/C (dose: 200.0 mg/kg/injection, schedule: Q01DX001 (ip), vehicle: saline with Tween-80): 90 % of control | T/C (dose: 400.0 mg/kg/injection, schedule: Q01DX001 (ip), vehicle: saline with Tween-80): 101 % of control

CCN(CC)CCCNC(=O)c1noc2cc([N+](=O)[O-])ccc12
T/C (dose: 12.5 mg/kg/injection, schedule: Q01DX005 (ip), vehicle: saline): 113 % of control | T/C (dose: 25.0 mg/kg/injection, schedule: Q01DX005 (ip), vehicle: saline): 105 % of control | T/C (dose: 50.0 mg/kg/injection, schedule: Q01DX005 (ip), vehicle: saline): 99 % of control

CCCCCCCCCCCC(=O)N(CCCC)CCCC
T/C (dose: 37.5 mg/kg/injection, schedule: Q01DX009 (ip), vehicle: Klucel (hydroxypropylcellulose) (HPC)): 100 % of control | T/C (dose: 75.0 mg/kg/injection, schedule: Q01DX009 (ip), vehicle: Klucel (hydroxypropylcellulose) (HPC)): 98 % of control | T/C (dose: 150.0 mg/kg/injection, schedule: Q01DX009 (ip), vehicle: Klucel (hydroxypropylcellulose) (HPC)): 92 % of control

O=C1C=CC(=O)C2=C1CCOC2c1ccccc1 (stereo not drawn)
T/C [1]: 91 % of control

C[n+]1c2ccccc2c(Nc2ccc(NS(=O)(=O)CCCCN=C(N)N)cc2)c2ccc(N)cc21
T/C (dose: 0.75 mg/kg/injection, schedule: Q01DX005 (ip), vehicle: Klucel (hydroxypropylcellulose) (HPC)): 113 % of control | T/C (dose: 1.5 mg/kg/injection, schedule: Q01DX005 (ip), vehicle: Klucel (hydroxypropylcellulose) (HPC)): 122 % of control | T/C (dose: 3.0 mg/kg/injection, schedule: Q01DX005 (ip), vehicle: Klucel (hydroxypropylcellulose) (HPC)): 151 % of control

Cc1cc(Br)ccc1N
T/C (dose: 100.0 mg/kg/injection, schedule: Q01DX009 (ip), vehicle: saline with Tween-80): 110 % of control | T/C (dose: 200.0 mg/kg/injection, schedule: Q01DX009 (ip), vehicle: saline with Tween-80): 110 % of control | T/C (dose: 400.0 mg/kg/injection, schedule: Q01DX009 (ip), vehicle: saline with Tween-80): 105 % of control

CCCCC1(CCN(CC)c2ccccc2)C(=O)NC(=O)NC1=O
T/C (dose: 50.0 mg/kg/injection, schedule: Q01DX005 (ip), vehicle: Klucel (hydroxypropylcellulose) (HPC)): 101 % of control | T/C (dose: 100.0 mg/kg/injection, schedule: Q01DX005 (ip), vehicle: Klucel (hydroxypropylcellulose) (HPC)): 99 % of control | T/C (dose: 200.0 mg/kg/injection, schedule: Q01DX005 (ip), vehicle: Klucel (hydroxypropylcellulose) (HPC)): 99 % of control

O=C(CCCc1ccc(N2C(=O)C=CC2=O)cc1)ON1C(=O)CCC1=O
T/C (dose: 12.5 mg/kg/injection, schedule: Q04DX002 (ip), vehicle: saline with Tween-80): 105 % of control | T/C (dose: 25.0 mg/kg/injection, schedule: Q04DX002 (ip), vehicle: saline with Tween-80): 104 % of control

CCN(CC)C(=O)Oc1cc(C(=O)N(CC)CC)c(OC(=O)N(CC)CC)cc1C(=O)N(CC)CC
T/C (dose: 60.0 mg/kg/injection, schedule: Q01DX005 (ip), vehicle: saline with Tween-80): 101 % of control | T/C (dose: 120.0 mg/kg/injection, schedule: Q01DX005 (ip), vehicle: saline with Tween-80): 92 % of control | T/C (dose: 240.0 mg/kg/injection, schedule: Q01DX005 (ip), vehicle: saline with Tween-80): 89 % of control

COc1ccc(C(C)c2cc3c(cc2OCC(=O)O)OCO3)cc1 (stereo not drawn)
T/C [1]: 105 % of control | T/C (dose: 100.0 mg/kg/injection, schedule: Q01DX005 (ip), vehicle: saline with Tween-80): 88 % of control | T/C (dose: 200.0 mg/kg/injection, schedule: Q01DX005 (ip), vehicle: saline with Tween-80): 90 % of control

CSc1cccnc1SC
T/C (dose: 50.0 mg/kg/injection, schedule: Q01DX009 (ip), vehicle: saline): 98 % of control | T/C (dose: 100.0 mg/kg/injection, schedule: Q01DX009 (ip), vehicle: saline): 98 % of control | T/C (dose: 200.0 mg/kg/injection, schedule: Q01DX009 (ip), vehicle: saline): 92 % of control

CN(C)CCCNc1nnc(NCCCN(C)C)c2cc3ccccc3cc12
T/C (dose: 7.5 mg/kg/injection, schedule: Q01DX005 (ip), vehicle: saline): 98 % of control | T/C (dose: 15.0 mg/kg/injection, schedule: Q01DX005 (ip), vehicle: saline): 94 % of control | T/C (dose: 30.0 mg/kg/injection, schedule: Q01DX005 (ip), vehicle: saline): 110 % of control

COC(OC)C1CC=CCCC1C(=O)O (stereo not drawn)
T/C (dose: 60.0 mg/kg/injection, schedule: Q01DX005 (ip), vehicle: saline): 91 % of control | T/C (dose: 120.0 mg/kg/injection, schedule: Q01DX005 (ip), vehicle: saline): 107 % of control | T/C (dose: 240.0 mg/kg/injection, schedule: Q01DX005 (ip), vehicle: saline): 96 % of control
